pKi: −log10 of the molar value.
What was measured:
Conditions in all cases: average of at least two experiments
dopamine D1 receptor = dopamine D1 receptor (Homo sapiens (Human), UniProt P21728); experiment: Secondary radioligand binding assay, D1; parameters: key to Ki D1: “—” indicates that a binding interaction was not detected
Description: (§1) 1. Secondary Radioligand Binding Assays
(§2) The detailed experimental protocols for the radioligand and functional receptor assays are available on the NIMH PDSP website at http://pdsp.med.unc.edu/UNC-CH %20Protocol %20Book.pdf.
(§3) Radioligand is diluted to five times the assay concentration (see Table 18) in Standard Binding Buffer. Typically, the assay concentration of radioligand is a value between one half the KD and the KD of a particular radioligand at its target. 50 μl aliquots of radioligand are dispensed into the wells of a 96-well plate containing 100 μl of Standard Binding Buffer. Then, duplicate 50 μl aliquots of the test and reference compound dilutions are added.
(§4) The 250 μl reactions are incubated at room temperature and shielded from light (to prevent photolysis of light-sensitive ligands) for 1.5 hours, then harvested by rapid filtration onto Whatman GF/B glass fiber filters pre-soaked with 0.3% polyethyleneimine using a 96-well Brandel harverster. Four rapid 500 μl washes are performed with chilled Standard Binding Buffer to reduce non-specific binding. Filters are placed in 6 ml scintillation tubes and allowed to dry overnight. The next day, 4 ml of EcoScint scintillation cocktail (National Diagnostics) are added to each tube. The tubes are capped, labeled, and counted by liquid scintillation counting. […] The filter mats are dried, then scintillant is melted onto the filters and the radioactivity retained on the filters is counted in a Microbeta scintillation counter.
(§5) Raw data (dpm) representing total radioligand binding (i.e. specific+non-specific binding) are plotted as a function of the logarithm of the molar concentration of the competitor (i.e. test or reference compound).
(§6) B. Dopamine Receptors: D1, D2, D3, D4, D5 Assay Buffers: Dopamine Binding Buffer (50 mM NaCl, 50 mM HEPES-HCl, 5 mM MgCl2, 0.5 mM EDTA, pH 7.4) Membrane Fraction Source: Transiently or stably transfected cell lines (e.g. HEK293, COS, CHO, NIH3T3)
(§7) The method is carried out in the manner described for the serotonin receptor assay above. Eleven dilutions (5× assay concentration) of the test and reference (see Table 19) compounds are prepared in Dopamine Binding Buffer by serial dilution, as previously described. Radioligand is diluted to five times the assay concentration (see Table 20) in Dopamine Binding Buffer.

5HT1d receptor = 5HT1d receptor (Homo sapiens (Human), UniProt P28221); experiment: Secondary radioligand binding assay, 5HT1d; parameters: key to Ki 5HT1d: “—” indicates that a binding interaction was not detected;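 note: competition binding against a radioligand on membranes from transfected cell lines, 1.5 h at room temperature, filter-retained radioactivity counted by liquid scintillation, total binding plotted versus log competitor concentration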
5HT1d receptor, sequence (P28221 whole entry): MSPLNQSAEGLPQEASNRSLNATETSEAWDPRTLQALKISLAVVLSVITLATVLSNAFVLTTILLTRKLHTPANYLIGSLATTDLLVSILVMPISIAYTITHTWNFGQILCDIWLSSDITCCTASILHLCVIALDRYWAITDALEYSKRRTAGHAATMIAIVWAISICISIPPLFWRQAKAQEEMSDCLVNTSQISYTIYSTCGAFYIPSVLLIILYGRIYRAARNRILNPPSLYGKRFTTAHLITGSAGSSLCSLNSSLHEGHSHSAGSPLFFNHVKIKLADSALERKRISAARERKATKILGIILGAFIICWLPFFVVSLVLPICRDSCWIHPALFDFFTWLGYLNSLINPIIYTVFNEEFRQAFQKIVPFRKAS

5HT7 receptor = 5HT7 receptor (Homo sapiens (Human), UniProt P34969); experiment: Secondary radioligand binding assay, 5HT7; parameters: key to Ki 5HT7: “—” indicates that a binding interaction was not detected;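 note: competition of test compound with radioligand for binding to membranes from transfected cell lines, 1.5 h incubation at room temperature, filter-bound radioactivity read by liquid scintillation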
5HT7 receptor, sequence (P34969 whole entry): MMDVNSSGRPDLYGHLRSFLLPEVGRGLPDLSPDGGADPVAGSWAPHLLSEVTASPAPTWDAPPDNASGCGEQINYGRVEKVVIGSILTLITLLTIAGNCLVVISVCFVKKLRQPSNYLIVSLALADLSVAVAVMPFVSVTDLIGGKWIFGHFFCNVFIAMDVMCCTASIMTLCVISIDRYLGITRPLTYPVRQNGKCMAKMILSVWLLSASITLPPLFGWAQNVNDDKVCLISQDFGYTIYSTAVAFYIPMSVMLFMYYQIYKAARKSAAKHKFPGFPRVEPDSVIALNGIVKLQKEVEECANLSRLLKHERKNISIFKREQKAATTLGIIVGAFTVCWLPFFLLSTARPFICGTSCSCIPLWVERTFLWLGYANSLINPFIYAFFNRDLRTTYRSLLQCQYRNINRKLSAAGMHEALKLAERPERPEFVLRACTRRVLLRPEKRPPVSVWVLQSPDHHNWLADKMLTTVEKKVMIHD

[1] = molecular target: Alpha1B adrenergic receptor (Homo sapiens (Human), UniProt P35368); experiment: Secondary radioligand binding assay, Alpha1B; parameters: key to Ki Alpha1B: “—” indicates that a binding interaction was not detected
Alpha1B adrenergic receptor, sequence (P35368 whole entry): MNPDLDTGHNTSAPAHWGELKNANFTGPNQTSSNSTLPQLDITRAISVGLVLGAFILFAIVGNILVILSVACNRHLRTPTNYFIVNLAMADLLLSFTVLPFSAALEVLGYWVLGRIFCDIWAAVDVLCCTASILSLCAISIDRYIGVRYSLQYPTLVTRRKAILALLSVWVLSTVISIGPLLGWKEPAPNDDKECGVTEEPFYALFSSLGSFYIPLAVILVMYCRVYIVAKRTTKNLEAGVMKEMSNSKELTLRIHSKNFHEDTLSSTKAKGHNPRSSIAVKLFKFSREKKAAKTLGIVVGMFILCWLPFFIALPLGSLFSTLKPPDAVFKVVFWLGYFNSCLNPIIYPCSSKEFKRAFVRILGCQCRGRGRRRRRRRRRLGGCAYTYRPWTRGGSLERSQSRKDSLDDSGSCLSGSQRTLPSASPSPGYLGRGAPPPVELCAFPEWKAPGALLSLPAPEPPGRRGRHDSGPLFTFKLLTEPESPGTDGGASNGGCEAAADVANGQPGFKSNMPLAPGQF
Source text: 1. Secondary Radioligand Binding Assays The detailed experimental protocols for the radioligand and functional receptor assays are available on the NIMH PDSP website at http://pdsp.med.unc.edu/UNC-CH %20Protocol %20Book.pdf. Raw data (dpm) representing total radioligand binding (i.e. specific+non-specific binding) are plotted as a function of the logarithm of the molar concentration of the competitor (i.e. test or reference compound). […] C. Adrenergic Receptors: α1A, α1B, α2A, α2B, α2C, β1, β2, β3 Assay Buffers: For α1 receptors, α1 Binding Buffer (20 mM Tris-HCl, 145 mM NaCl, pH 7.4); for α2 receptors, α2 Binding Buffer (50 mM Tris-HCl, 5 mM MgCl2, pH 7.7); for β receptors, β Binding Buffer (50 mM Tris-HCl, 3 mM MnCl2, pH 7.7) Membrane Fraction Source: Transiently or stably transfected cell lines (e.g. HEK293, COS, CHO, NIH3T3) Protocol adapted from Arango et al. […] (1990), Gen. Psychiatry, 47: 1038-1047. The method is carried out in the manner described for the serotonin receptor assay above, except where described below. Eleven dilutions (5× assay concentration) of the test and reference (see Table 20) compounds are prepared in the appropriate buffer by serial dilution, as previously described. Radioligand is diluted to five times the assay concentration (see Table 21) in the appropriate buffer. […] Four rapid 500-μl washes are performed with chilled distilled water (for α1 and β receptors) or 0.1% polyethyleneimine (for α2 receptors) to reduce non-specific binding. Filters are placed in 6 ml scintillation tubes and allowed to dry overnight and the samples are treated to obtain data as described above. [table]

5HT6 receptor = 5HT6 receptor (Homo sapiens (Human), UniProt P50406); experiment: Secondary radioligand binding assay, 5HT6; parameters: key: “—” indicates that a binding interaction was not detected;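 note: competition displacement of radioligand from membranes of transfected cell lines expressing the receptor, 1.5 h at room temperature, bound radioactivity counted by scintillation after filtration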
5HT6 receptor, sequence (P50406 whole entry): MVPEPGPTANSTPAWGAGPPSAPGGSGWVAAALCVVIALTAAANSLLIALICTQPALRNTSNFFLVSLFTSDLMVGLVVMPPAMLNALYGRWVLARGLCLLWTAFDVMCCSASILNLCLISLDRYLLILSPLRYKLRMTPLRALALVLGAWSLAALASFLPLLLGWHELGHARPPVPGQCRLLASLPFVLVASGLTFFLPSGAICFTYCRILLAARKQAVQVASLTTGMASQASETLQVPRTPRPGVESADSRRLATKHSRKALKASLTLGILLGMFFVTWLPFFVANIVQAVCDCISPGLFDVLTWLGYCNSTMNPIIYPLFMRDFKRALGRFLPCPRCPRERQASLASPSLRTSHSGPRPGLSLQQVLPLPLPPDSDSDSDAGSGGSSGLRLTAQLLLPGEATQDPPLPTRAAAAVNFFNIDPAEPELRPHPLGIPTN

dopamine D5 receptor = dopamine D5 receptor (Homo sapiens (Human), UniProt P21918); experiment: Secondary radioligand binding assay, D5; parameters: key to Ki D5: “—” indicates that a binding interaction was not detected
dopamine D5 receptor, sequence (P21918 whole entry): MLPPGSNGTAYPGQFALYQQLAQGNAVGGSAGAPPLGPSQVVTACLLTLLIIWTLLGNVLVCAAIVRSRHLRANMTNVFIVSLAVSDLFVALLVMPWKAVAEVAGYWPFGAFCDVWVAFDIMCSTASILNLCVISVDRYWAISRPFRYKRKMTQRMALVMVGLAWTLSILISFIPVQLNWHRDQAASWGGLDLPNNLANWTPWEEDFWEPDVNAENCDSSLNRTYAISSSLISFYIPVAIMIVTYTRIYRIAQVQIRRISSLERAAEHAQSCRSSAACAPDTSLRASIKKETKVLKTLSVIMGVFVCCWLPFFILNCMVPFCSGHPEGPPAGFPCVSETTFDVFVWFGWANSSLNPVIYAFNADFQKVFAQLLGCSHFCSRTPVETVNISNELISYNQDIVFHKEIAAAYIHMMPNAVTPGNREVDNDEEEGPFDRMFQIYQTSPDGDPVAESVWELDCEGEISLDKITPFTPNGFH
Description: as §1, §2, §3, §4, §5, §6, §7

dopamine D3 receptor = dopamine D3 receptor (Homo sapiens (Human), UniProt P35462); experiment: Secondary radioligand binding assay, D3; parameters: key to Ki D3: “—” indicates that a binding interaction was not detected
dopamine D3 receptor, sequence (P35462 whole entry, species assumed): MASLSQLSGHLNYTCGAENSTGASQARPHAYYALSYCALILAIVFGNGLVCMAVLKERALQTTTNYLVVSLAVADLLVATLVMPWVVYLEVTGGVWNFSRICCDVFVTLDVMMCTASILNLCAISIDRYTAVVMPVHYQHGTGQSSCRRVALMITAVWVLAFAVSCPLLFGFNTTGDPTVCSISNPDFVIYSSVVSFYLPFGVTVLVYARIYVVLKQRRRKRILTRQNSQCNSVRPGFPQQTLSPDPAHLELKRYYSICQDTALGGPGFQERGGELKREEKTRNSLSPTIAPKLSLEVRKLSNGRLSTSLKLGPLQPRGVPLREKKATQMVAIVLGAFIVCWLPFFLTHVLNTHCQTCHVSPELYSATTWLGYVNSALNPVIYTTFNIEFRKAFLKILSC
Description: as §1, §2, §3, §4, §5, §6, §7

5HT5 receptor = 5HT5 receptor (Homo sapiens (Human), UniProt P47898); experiment: Secondary radioligand binding assay, 5HT5; parameters: key: “—” indicates that a binding interaction was not detected;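 note: competitive radioligand displacement on membranes from transfected cell lines, incubated at room temperature in the dark, filter-retained radioactivity counted by liquid scintillation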
5HT5 receptor, sequence (P47898 whole entry): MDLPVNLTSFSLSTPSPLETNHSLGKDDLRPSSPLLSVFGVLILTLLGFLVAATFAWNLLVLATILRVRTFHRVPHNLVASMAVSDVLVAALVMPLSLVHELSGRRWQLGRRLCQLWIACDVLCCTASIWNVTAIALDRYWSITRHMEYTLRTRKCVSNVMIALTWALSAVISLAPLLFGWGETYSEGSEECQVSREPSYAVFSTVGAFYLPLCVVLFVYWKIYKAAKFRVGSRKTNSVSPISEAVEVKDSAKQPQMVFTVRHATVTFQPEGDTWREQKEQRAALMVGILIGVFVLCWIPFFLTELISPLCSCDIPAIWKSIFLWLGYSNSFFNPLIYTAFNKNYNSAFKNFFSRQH

5HT3 receptor = 5HT3 receptor (Homo sapiens (Human), UniProt P46098); experiment: Secondary radioligand binding assay, 5HT3; parameters: key: “—” indicates that a binding interaction was not detected;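 note: radioligand competition binding on membranes from transfected cell lines, 1.5 h incubation at room temperature, filter-retained radioactivity measured by liquid scintillation counting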
5HT3 receptor, sequence (P46098 24-478): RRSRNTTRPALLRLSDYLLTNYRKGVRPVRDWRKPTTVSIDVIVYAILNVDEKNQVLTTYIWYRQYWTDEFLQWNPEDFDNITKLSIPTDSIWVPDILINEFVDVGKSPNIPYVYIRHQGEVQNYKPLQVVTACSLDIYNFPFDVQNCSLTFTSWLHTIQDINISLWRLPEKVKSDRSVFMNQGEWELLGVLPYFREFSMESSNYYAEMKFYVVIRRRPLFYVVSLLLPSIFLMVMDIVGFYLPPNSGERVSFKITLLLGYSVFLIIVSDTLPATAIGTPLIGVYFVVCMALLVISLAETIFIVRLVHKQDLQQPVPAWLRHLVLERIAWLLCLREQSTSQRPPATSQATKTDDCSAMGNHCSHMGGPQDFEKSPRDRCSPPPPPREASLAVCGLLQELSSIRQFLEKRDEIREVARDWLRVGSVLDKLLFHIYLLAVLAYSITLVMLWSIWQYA

dopamine D2 receptor = dopamine D2 receptor (Homo sapiens (Human), UniProt P14416); experiment: Secondary radioligand binding assay, D2; parameters: key to Ki D2: “—” indicates that a binding interaction was not detected
dopamine D2 receptor, sequence (P14416 whole entry, species assumed): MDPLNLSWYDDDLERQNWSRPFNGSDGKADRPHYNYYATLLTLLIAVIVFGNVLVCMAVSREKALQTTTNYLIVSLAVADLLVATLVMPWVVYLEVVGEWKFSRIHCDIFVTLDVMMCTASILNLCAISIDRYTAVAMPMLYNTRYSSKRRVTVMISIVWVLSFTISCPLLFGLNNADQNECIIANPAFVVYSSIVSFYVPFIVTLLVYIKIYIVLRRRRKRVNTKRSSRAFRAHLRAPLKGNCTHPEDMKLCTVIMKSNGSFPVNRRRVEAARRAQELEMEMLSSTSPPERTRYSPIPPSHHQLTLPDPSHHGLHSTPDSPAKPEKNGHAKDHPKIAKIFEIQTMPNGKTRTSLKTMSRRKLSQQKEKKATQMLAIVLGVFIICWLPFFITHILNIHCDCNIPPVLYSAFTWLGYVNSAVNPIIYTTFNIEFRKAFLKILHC
Description: as §1, §2, §3, §4, §5, §6, §7

dopamine D1 receptor, sequence (P21728 whole entry): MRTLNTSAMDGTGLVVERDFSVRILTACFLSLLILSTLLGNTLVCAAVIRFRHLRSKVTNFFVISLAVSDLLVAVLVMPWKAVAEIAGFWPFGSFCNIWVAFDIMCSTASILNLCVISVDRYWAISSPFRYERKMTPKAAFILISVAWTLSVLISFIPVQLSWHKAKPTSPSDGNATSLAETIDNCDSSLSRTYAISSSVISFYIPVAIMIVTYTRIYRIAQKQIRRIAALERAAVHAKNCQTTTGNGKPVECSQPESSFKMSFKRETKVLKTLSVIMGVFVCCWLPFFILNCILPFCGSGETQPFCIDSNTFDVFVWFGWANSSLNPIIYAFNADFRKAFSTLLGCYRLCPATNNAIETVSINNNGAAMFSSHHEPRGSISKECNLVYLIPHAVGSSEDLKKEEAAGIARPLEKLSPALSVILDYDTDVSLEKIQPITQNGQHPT

| pKi (5HT7 receptor) | Structure (SMILES) | Ki D1 (dopamine D1 receptor) | Ki 5HT1d (5HT1d receptor) | Ki 5HT7 (5HT7 receptor) | Ki Alpha1B [1] | Ki 5HT6 (5HT6 receptor) | Ki D5 (dopamine D5 receptor) | Ki D3 (dopamine D3 receptor) | Ki 5HT5 (5HT5 receptor) | Ki 5HT3 (5HT3 receptor) | Ki D2 (dopamine D2 receptor) | pKi (dopamine D1 receptor) | pKi (5HT1d receptor) | pKi (dopamine D5 receptor) | pKi (dopamine D3 receptor) | pKi (dopamine D2 receptor) |
| --- | --- | --- | --- | --- | --- | --- | --- | --- | --- | --- | --- | --- | --- | --- | --- | --- |
|  | COc1cccc(OC[C@@H]2CN(CC(=O)N3CCc4ccccc43)CCO2)c1 [Compound 24s, (S)-1-(Indolin-1-yl)-2-(2-((3-methoxyphenoxy)methyl)morpholino)ethanone] | — | — | — | — | — | — | — | — | — | — |  |  |  |  |  |
|  | COc1cccc(OC[C@@H]2CN(CCN3CCc4ccccc43)CCO2)c1 [Compound 25s, (S)-4-(2-(Indolin-1-yl)ethyl)-2-((3-methoxyphenoxy)methyl)morpholine] |  |  | — | — | — |  |  | — | — |  | 5.08 | 5.70 | 5.07 | 5.08 | 5.00 |
| < 5.00 | Cc1ncccc1OC[C@H]1CN(CCN2CCc3ccccc32)CCO1 [Compound 26r, (R)-4-(2-(Indolin-1-yl)ethyl)-2-(((2-methylpyridin-3-yl)oxy)methyl)morpholine] | — | — |  | — | — | — |  | — | — | — |  |  |  | < 5.00 |  |
|  | Cc1ncccc1OC[C@@H]1CN(CCN2CCc3ccccc32)CCO1 [Compound 26s, (S)-4-(2-(Indolin-1-yl)ethyl)-2-(((2-methylpyridin-3-yl)oxy)methyl)morpholine] | — | — | — | — | — | — | — | — | — | — |  |  |  |  |  |
|  | Clc1cncc(OC[C@H]2CN(CCN3CCc4ccccc43)CCO2)c1 [Compound 27r, (R)-2-(((5-Chloropyridin-3-yl)oxy)methyl)-4-(2-(indolin-1-yl)ethyl)morpholine] | — | — | — | — | — | — | — | — | — | — |  |  |  |  |  |
|  | Clc1cncc(OC[C@@H]2CN(CCN3CCc4ccccc43)CCO2)c1 [Compound 27s, (S)-2-(((5-Chloropyridin-3-yl)oxy)methyl)-4-(2-(indolin-1-yl)ethyl)morpholine] |  | — | — | — | — | — | — | — | — |  | 5.23 |  |  |  | < 5.00 |
|  | Cc1ccc(OC[C@H]2CN(CCN3CCc4ccccc43)CCO2)cn1 [Compound 28r, (R)-4-(2-(Indolin-1-yl)ethyl)-2-(((6-methylpyridin-3-yl)oxy)methyl)morpholine] | — | — | — | — | — | — | — | — | — | — |  |  |  |  |  |
|  | Cc1ccc(OC[C@@H]2CN(CCN3CCc4ccccc43)CCO2)cn1 [Compound 28s, (S)-4-(2-(Indolin-1-yl)ethyl)-2-(((6-methylpyridin-3-yl)oxy)methyl)morpholine] | — | — | — | — | — | — | — | — | — | — |  |  |  |  |  |
